In ChEMBL document CHEMBL6071131, “New substituted benzoxazine derivatives as potent inducers of membrane permeability and cell death” (Bioorg Med Chem, 2024) one finds IC50 data, which are given here for one molecule.

The IC50 is the concentration that gives 50% inhibition. Higher therefore signals weaker potency.

Assay [1] has as its system MCF7. The assay is described as follows: Antiproliferative activity against human MCF7 cells incubated for 5 days by PrestoBlue assay. Format: functional, cell-based. The settings on record: MCF7, 120 h.
For assay [2], the system named is HCT-116. The assay is described as follows: Antiproliferative activity against human HCT-116 cells incubated for 5 days by PrestoBlue assay. The settings on record: HCT-116, 120 h. Format: functional, cell-based.

`Cc1ccc(S(=O)(=O)N2CC(CCn3cnc4c(Cl)nc(Cl)nc43)Oc3ccccc32)cc1` (configuration not stated): the IC50 in assay [1] was 13 µM; in assay [2], 7.06 µM.
